# US20140309295A1, “ANTIEPILEPTIC, HYPOCHOLESTEROLEMIC AND NEUROPROTECTIVE COMPOUND” (NEURON BIOPHARMA, S.A., priority 2009, published 2014)
# Columns and labels:
# [1] = system: human neuroblastoma SK-N-MC cells; experiment: Protection against neuronal death induced by apoptosis (camptothecin), WST-1; format: cell-based; conditions: 20 nM camptothecin
# Procedure: The assay was performed on human neuroblastoma SK-N-MC cells in culture from the American Type Culture Collection (ATCC), in all cases strict rules of sterility were followed and the manipulation was performed in class II biological safety cabinets following European standard EN 12469. The cells were maintained in the following culture medium: Minimum Essential Medium Eagle (MEM) supplemented with 1 mM sodium pyruvate, 2 mM L-glutamine, 0.1 mM non-essential amino acids, 0.05 mg/ml gentamicin and 10% fetal bovine serum.
# The inhibition caused by compound NST0037 of cell death caused by treatment with camptothecin generating cell cycle arrest was analyzed. Camptothecin is an inhibitor of Topoisomerase I, it therefore prevents DNA duplication and triggers cell cycle arrest and death due to apoptosis. These cells, not exceeding 15 passages, were seeded on 96-well plates treated for adherent cells with a cell concentration of 5×10^4 cells/well; 3 wells of the plate were seeded for each condition of the assay.
# After 24 hours of cell incubation at 37° C. and 5% CO2, the cell treatments were performed with 100 μl of total volume for the following conditions: • Control: culture medium (medium) • Camptothecin (CPT): medium plus camptothecin 20 nM, causing death of 50% of the cells. • Camptothecin plus NST0037: medium plus camptothecin (20 nM) plus NST0037 at 1, 4, 10, 20, 40 or 100 μM.
# The cells were incubated (at 37° C. and 5% CO2) with these treatments for 22 hours, after which time the WST-1 reagent (Roche) was added. The Test WST-1 is based on the measurement of metabolic activity. Cell damage causes the loss of the ability of cells to obtain the energy necessary to maintain their metabolic functions and cell growth, therefore the metabolically active (live) cells reduce tetrazolium salt to formazan by means of the succinate-tetrazolium reductase system (of the mitochondrial respiratory chain). The formazan which is formed can be detected colorimetrically since it has an absorbance of 440 nm. The reading was taken in a plate reader at 440 nm 2 hours after adding the reagent.
# [2] = system: zebrafish embryo; experiment: Biosafety in zebrafish embryo (OECD C15, semi-static, 9 days); format: in vivo, Danio rerio
# Procedure: The fertilized eggs were obtained by natural mating of the zebrafish (Danio rerio, AB strain). A total of 8-10 pairs were used for each cross and a total of 200-250 eggs were generated on average per pair.
# To assure exposure in the earliest stages of development, the eggs were quickly transferred (a minimum of 50 per condition) to another Petri dish with solutions of the compounds to be tested. […] Each experiment was performed in triplicate.
# The studies were conducted in a total of 9 days post-fertilization, in which the treatment was renewed every day, thus conducting a semi-static assay.
# The results at the end of the experiment allowed collecting the percentage of healthy larvae which reach the end of the experiment, defined as the number of live larvae and without symptoms of external physiopathological anomalies (morphological and/or behavioral), this being a parameter determining the biosafety of a substance under study and is complementary to the survival rates and to the LD50.
# The anomalies recorded in the study are described below: • Intracranial thrombosis: a clot inside the blood vessel, in this case of any cerebral vessel. • Cardiac thrombosis: occurs in a cardiac vessel. • Cardiac edema (or hydrops): accumulation of fluid in the intercellular tissue space and also in the cavities of the organism. In the case of the heart, it causes the accumulation of fluid in the pericardial sac. • Malformation: a noticeable difference in the shape of the body or part of the body, or organ of the body (internal or external) compared with the average shape of the part in question.
# The cardiac rhythm of the zebrafish embryos-larva was determined by means of visual analysis in stereomicroscopy, determining the heartbeat with the aid of a manual counter for a period of one minute.
# [3] = system: ApoB100 mice; experiment: Hypocholesterolemic effect in endogenous hyperlipidemia model, single i.p. dose; format: in vivo; conditions: 50 mg/kg i.p., 12 hours
# Procedure: All the animals included for the experimental process were 46-week old males of the ApoB100 strain, which strain has a deficiency in removing cholesterol from the blood which causes an abnormally high increase of plasma cholesterol. The experiments were conducted strictly following the Guidance on the Operation of Animals (Scientific Procedures, Act. 1986). The animals had their respective quarantine period and were treated with maximum precaution to minimize possible contaminations for inoculations and handling.
# (§1) In order to conduct the experiment on the fasting animals, blood was extracted by ocular puncture. The plasma was obtained from said blood, in which plasma total cholesterol levels and levels of its fractions were determined prior to administration of the substances under study. Immediately after that, the animals were intraperitoneally inoculated with 50 mg/kg of each of the test compounds. Four animals were treated with the vehicle and were considered the control group. […] Finally, a third group of five mice received 50 mg/Kg of NST0037. Twelve hours after the treatments, blood was again extracted from the fasting animals and the plasma was obtained from said blood.
# [4] = system: C57BL6 mice treated with Triton 1339 (Tyloxapol); experiment: Hypocholesterolemic effect in induced hyperlipidemia model (Triton 1339); format: in vivo; conditions: 50 mg/kg i.p.
# Procedure: as §1, with “[…] After thirty minutes,” for “Immediately after that,”, “Seven” for “Four”, “vehicle alone” for “vehicle”, “seven” for “five”, “Twenty-four” for “Twelve”
compound,measurement,setting,value
"CCC(CC)C(=O)O[C@H]1C[C@@H](C)C=C2C=C[C@H](C)[C@H](CC[C@@H]3C[C@@H](O)CC(=O)O3)[C@H]21 [NST0037, (1S,2S,6R,8S,8aR)-1,2,6,7,8,8a-hexahydro-3,7-dimethyl-8-[2-[(2R,4R)-tetrahydro-4-hydroxy-6-oxo-2H-pyran-2-yl]ethyl]-1-naphthalenyl-2-ethyl-butyrate]",protection against death caused by camptothecin,[1]; 4 μM NST0037,18%
same,protection against death caused by camptothecin,[1]; 10 μM NST0037,28%
same,protection against death caused by camptothecin,[1]; 40 μM NST0037,27%
same,protection against death caused by camptothecin,[1]; 100 μM NST0037,27%
same,percentage of larvae with malformations or anomalous appearance,[2]; 0.2 mg/L,did not show significant toxicological effects
same,percentage of healthy larvae at the end of the experiment,"[2]; 0.06 and 0.2 mg/L, 9 days",more healthy larvae reaching the end of the experiment
same,LD50,[2]; first days post-treatment (up to day 2),above the maximum dose evaluated
same,survival rate of embryos-larvae,"[2]; high dose (2 mg/L, FIG. 24)",caused the mortality of all the embryos of the assay
same,reduction of the cardiac rhythm vs controls,"[2]; increasing doses up to 2 mg/L, 72 hours post-treatment",statistically significant only at the dose of 2 mg/L
same,survival rate of embryos-larvae vs controls,[2]; lower dose (FIG. 25: NST0037 0.2 mg/L),did not cause a statistically significant reduction of the survival rate
same,HDL-c levels,[3],without changing
same,LDL-c levels,[3],considerably reduced
same,VLDL-c levels,[3],considerably reduced
same,esterified cholesterol (EC) levels,[3],reduced the EC levels in a similar manner
same,free cholesterol (FC) levels,[3],without changing FC levels
same,plasma total cholesterol levels,[3]; male ApoB100 mice,significant hypocholesterolemic effect
same,HDL-c levels,[4]; 24 hours after Triton 1339,not being changed
same,LDL-c levels,[4]; 24 hours after Triton 1339,reduction being statistically significant
same,VLDL-c levels,[4]; 24 hours after Triton 1339,Only simvastatin reduced
same,esterified cholesterol (EC) levels,[4]; 24 hours after Triton 1339,reduced
same,free cholesterol (FC) levels,[4]; 24 hours after Triton 1339,reduced the levels of this fraction in a similar manner
same,total cholesterol increase,[4]; 24 hours after Triton 1339 500 mg/kg,"hypocholesterolemic effect, being statistically significant"
